Common to all, as to format: biochemical
One assay concerns the target T1, mTOR Kinase (FLAG-TOR) (Homo sapiens, UniProt P42345).
T1 construct: FLAG
Nature of the assay: mTOR kinase assay, purified enzyme, DELFIA format. The note with it: 100 μM ATP, 1.25 μM His6-S6K; read-out: mTOR Kinase Median IC50.

For a further assay, the target named is PI3Kα (Homo sapiens, UniProt P42336). Nature of the assay: PI3K-alpha fluorescence polarization assay. Conditions: 20 μM PIP2, 25 μM ATP; read-out: PI3Kα Median IC50.
Another assay deals with PI3Kγ (Homo sapiens, UniProt P48736). Kind of assay: PI3K-gamma fluorescence polarization assay. The note with it: 20 μM PIP2, 25 μM ATP; read-out: PI3Kγ Median IC50. How it is done:
PI3K-alpha and PI3K-gamma Fluorescence Polarization Assay Protocols
The reaction buffer was 20 mM HEPES pH 7.5, 2 mM MgCl2, 0.05% CHAPS, and 0.01% βME (added fresh). The substrate solution was 40 μM PIP2 (diC8, Echelon, Salt Lake City Utah cat # P-4508, 1 mM in water) and 50 μM ATP in the reaction buffer. Nunc 384-well black polypropylene fluorescent plates were used for PI3K assays. The assay is run by putting 9.5 μl of freshly diluted enzyme in the reaction buffer per well, adding 0.5 μl of diluted drug or DMSO, and mixing. Then 10 μl of the substrate solution is added to each well to start the reaction. A final concentration of 20 μM PIP2 and 25 μM ATP in the reaction was used. Reactions were allowed to proceed for 30-60 minutes at room temperature. After 30-60 minutes, 20 μl of a solution of 10 nM TAMRA detector (Red detector probe-Echelon) and 2.5 μM of GST-murineGRP (1.5 mg/ml in 17% glycerol) was added per well to stop the reaction. The resulting solution was mixed well and allowed to stand for 90-110 minutes before reading plate. Assay Plates were read on Perkin-Elmer Envision plate readers with appropriate filters for Tamra [BODIPY-TMRI(1,3,4,5)P4]. Data obtained were used to calculate enzymatic activity and enzyme inhibition by inhibitor compounds. It is important to keep Red probe solutions dark. This procedure is adapted from Echelon Biosciences Inc procedure for their PI3-Kinase fluorescence polarization activity Assay kit Product number K-1100.
(Polarisation of emitted light reports the rotation of a fluorescent probe.)

Molecules are shown by their SMILES.

This note sets out measurements from patent US20100003250A1, “(2-ARYL-7H-PYRROLO[2,3-D]PYRIMIDIN-4-YL)MORPHOLINE COMPOUNDS, THEIR USE AS MTOR KINASE AND PI3 KINASE INHIBITORS, AND THEIR SYNTHESES” (Wyeth, priority 2008, published 2010).

Sequence of PI3Kα (P42336 whole entry, species assumed): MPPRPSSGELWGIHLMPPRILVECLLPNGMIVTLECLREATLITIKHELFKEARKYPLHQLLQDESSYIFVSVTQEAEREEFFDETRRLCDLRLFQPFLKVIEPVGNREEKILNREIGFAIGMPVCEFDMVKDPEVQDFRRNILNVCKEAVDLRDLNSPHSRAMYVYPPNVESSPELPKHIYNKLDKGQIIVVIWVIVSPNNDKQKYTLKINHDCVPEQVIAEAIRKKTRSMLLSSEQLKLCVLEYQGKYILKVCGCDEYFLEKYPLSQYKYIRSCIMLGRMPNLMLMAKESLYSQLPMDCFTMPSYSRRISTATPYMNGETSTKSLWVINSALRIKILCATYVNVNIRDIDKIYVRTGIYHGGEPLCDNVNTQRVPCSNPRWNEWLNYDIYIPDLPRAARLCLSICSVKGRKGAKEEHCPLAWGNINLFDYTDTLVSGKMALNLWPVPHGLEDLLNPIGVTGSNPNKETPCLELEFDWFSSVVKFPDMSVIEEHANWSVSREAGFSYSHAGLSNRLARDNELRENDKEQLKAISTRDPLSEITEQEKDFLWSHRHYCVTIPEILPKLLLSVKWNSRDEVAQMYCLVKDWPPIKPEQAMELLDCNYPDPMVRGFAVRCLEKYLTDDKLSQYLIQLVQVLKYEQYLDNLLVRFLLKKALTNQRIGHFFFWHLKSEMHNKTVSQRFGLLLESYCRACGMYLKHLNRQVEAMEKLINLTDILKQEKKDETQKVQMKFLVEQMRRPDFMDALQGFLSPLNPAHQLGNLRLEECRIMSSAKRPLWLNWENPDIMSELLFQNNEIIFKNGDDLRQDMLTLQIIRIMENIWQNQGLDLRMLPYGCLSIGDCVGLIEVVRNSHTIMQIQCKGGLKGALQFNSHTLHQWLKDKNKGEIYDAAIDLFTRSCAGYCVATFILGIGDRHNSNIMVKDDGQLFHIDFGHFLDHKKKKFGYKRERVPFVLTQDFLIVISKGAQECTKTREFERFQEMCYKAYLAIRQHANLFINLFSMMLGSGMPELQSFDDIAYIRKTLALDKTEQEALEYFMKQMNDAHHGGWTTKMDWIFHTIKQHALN
Sequence of PI3Kα (P27986 whole entry partner, species assumed): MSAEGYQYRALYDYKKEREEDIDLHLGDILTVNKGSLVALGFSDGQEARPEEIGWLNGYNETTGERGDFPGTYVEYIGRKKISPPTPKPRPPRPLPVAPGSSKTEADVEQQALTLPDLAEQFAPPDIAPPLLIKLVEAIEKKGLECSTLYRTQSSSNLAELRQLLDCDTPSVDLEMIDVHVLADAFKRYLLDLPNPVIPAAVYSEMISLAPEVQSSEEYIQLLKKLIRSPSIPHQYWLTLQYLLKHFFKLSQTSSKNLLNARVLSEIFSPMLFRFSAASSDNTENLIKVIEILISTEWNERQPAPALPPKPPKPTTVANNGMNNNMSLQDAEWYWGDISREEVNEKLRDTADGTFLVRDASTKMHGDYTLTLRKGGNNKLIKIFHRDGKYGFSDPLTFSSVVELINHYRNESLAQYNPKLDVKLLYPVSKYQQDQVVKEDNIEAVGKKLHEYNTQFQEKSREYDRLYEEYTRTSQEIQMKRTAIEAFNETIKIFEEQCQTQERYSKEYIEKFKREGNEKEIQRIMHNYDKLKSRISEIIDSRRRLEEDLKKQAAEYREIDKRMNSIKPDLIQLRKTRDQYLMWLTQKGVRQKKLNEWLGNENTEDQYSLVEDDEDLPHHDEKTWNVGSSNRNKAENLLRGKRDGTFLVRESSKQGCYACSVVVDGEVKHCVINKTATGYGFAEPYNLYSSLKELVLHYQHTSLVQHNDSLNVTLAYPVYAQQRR
Sequence of PI3Kγ (P48736 whole entry, species assumed): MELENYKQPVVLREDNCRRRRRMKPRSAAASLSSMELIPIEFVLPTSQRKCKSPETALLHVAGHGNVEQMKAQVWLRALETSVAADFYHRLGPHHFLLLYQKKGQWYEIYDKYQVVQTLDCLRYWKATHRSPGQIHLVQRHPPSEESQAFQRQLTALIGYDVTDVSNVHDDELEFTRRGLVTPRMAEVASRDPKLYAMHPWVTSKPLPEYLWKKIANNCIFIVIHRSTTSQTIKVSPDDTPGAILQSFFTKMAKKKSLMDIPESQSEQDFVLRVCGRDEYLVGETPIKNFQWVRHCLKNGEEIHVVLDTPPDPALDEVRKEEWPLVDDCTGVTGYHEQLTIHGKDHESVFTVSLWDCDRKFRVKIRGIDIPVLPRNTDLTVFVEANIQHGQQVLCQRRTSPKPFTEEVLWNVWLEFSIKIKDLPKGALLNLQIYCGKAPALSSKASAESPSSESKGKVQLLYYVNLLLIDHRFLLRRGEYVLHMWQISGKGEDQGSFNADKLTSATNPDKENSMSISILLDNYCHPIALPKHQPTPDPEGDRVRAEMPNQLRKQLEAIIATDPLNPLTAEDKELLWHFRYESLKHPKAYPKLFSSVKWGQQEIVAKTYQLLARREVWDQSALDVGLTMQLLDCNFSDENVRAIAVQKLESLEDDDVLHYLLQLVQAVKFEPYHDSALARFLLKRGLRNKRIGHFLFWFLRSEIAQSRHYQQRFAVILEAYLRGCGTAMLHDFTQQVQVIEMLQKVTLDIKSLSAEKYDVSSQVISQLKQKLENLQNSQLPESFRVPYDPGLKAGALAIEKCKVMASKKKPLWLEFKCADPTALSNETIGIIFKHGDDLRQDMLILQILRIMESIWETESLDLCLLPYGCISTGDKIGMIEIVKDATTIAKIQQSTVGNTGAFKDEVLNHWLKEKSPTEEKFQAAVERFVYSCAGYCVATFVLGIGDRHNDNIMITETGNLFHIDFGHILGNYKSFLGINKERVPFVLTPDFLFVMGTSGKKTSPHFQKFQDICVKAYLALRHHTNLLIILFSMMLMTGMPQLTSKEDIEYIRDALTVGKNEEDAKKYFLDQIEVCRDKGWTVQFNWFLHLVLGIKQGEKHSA

For `CC(C)n1ccc2c(N3CCOCC3)nc(-c3ccc(NC(=O)Nc4ccc(OCCN(C)C)cc4)cc3)nc21` [Compound 81, 1-{4-[2-(dimethylamino)ethoxy]phenyl}-3-[4-(7-isopropyl-4-morpholin-4-yl-7H-pyrrolo[2,3-d]pyrimidin-2-yl)phenyl]urea], the half-maximal inhibitory concentration (IC50) (in general, the midpoint of a concentration-inhibition curve) on mTOR Kinase (FLAG-TOR) turned out to be 2.95 nM; on PI3Kα, 34 nM; at PI3Kγ, 219 nM.
For `O=C(Nc1cccnc1)Nc1nc2cc(-c3nc(N4CCOCC4)c4ccn(CC(F)(F)F)c4n3)ccc2[nH]1` [Compound 46, 1-{5-[4-morpholin-4-yl-7-(2,2,2-trifluoroethyl)-7H-pyrrolo[2,3-d]pyrimidin-2-yl]-1H-benzimidazol-2-yl}-3-pyridin-3-ylurea] the same measures were 3.4 nM, 14 nM and 104 nM.
For `COC(=O)c1ccc(NC(=O)Nc2ccc(-c3nc(N4CCOCC4)c4ccn(CC(F)(F)F)c4n3)cc2)cc1` [Compound 50, methyl 4-[({4-[4-morpholin-4-yl-7-(2,2,2-trifluoroethyl)-7H-pyrrolo[2,3-d]pyrimidin-2-yl]phenyl}carbamoyl)amino]benzoate] the same measures were 4.9 nM, 8710 nM and greater than 10000 nM.
For `CC(C)n1ccc2c(N3CCOCC3)nc(-c3ccc(NC(=O)Nc4ccc(C(=O)NCCN5CCCC5)cc4)cc3)nc21` [Compound 87, 4-({[4-(7-isopropyl-4-morpholin-4-yl-7H-pyrrolo[2,3-d]pyrimidin-2-yl)phenyl]carbamoyl}amino)-N-(2-pyrrolidin-1-ylethyl)benzamide] the same measures were 0.55 nM, 5 nM and 88 nM.
Regarding `CC(C)n1ccc2c(N3CCOCC3)nc(-c3ccc(NC(=O)Nc4ccc(C(=O)N5CCC(N6CCCC6)CC5)cc4)cc3)nc21` [Compound 88, 1-[4-(7-isopropyl-4-morpholin-4-yl-7H-pyrrolo[2,3-d]pyrimidin-2-yl)phenyl]-3-{4-[(4-pyrrolidin-1-ylpiperidin-1-yl)carbonyl]phenyl}urea], the concentration for half-maximal inhibition (IC50) at mTOR Kinase (FLAG-TOR) was determined as 0.59 nM; on PI3Kα, 4.3 nM; on PI3Kγ, 38 nM.
For `CC(C)n1ccc2c(N3CCOCC3)nc(-c3ccc(NC(=O)Nc4ccc(C(=O)N(C)CCN(C)C)cc4)cc3)nc21` [Compound 85, N-[2-(dimethylamino)ethyl]-4-({[4-(7-isopropyl-4-morpholin-4-yl-7H-pyrrolo[2,3-d]pyrimidin-2-yl)phenyl]carbamoyl}amino)-N-methylbenzamide] the same measures were 0.61 nM, less than 1.8 nM and 34 nM.
Taken in the same sequence, the figures for `O=C(Nc1ccc(-c2nc(N3CCOCC3)c3cc[nH]c3n2)cc1)Nc1cccnc1` [Compound 5, 1-[4-(4-morpholin-4-yl-7H-pyrrolo[2,3-d]pyrimidin-2-yl)phenyl]-3-pyridin-3-ylurea] were 1.7 nM, 15 nM and 78 nM.
Consider `CCn1ccc2c(N3CCOCC3)nc(-c3ccc(NC(=O)Nc4ccc(C(=O)N5CCN(C6CCCC6)CC5)cc4)cc3)nc21` [Compound 73, 1-{4-[(4-cyclopentylpiperazin-1-yl)carbonyl]phenyl}-3-[4-(7-ethyl-4-morpholin-4-yl-7H-pyrrolo[2,3-d]pyrimidin-2-yl)phenyl]urea], for which the IC50 at mTOR Kinase (FLAG-TOR) turned out to be 3.35 nM; at PI3Kα, 6.5 nM; on PI3Kγ it was 35 nM.
For `CC(C)n1ccc2c(N3CCOCC3)nc(-c3ccc(NC(=O)Nc4ccc(C(=O)N5CCNCC5)cc4)cc3)nc21` [Compound 83, 1-[4-(7-isopropyl-4-morpholin-4-yl-7H-pyrrolo[2,3-d]pyrimidin-2-yl)phenyl]-3-[4-(piperazin-1-ylcarbonyl)phenyl]urea], the half-maximal inhibitory concentration (IC50) at mTOR Kinase (FLAG-TOR) was 0.64 nM; at PI3Kα, less than 2.3 nM; at PI3Kγ, 13 nM.
Consider `O=C(Nc1ccc(F)cc1)Nc1ccc(-c2nc(N3CCOCC3)c3ccn(CC(F)(F)F)c3n2)cc1` [Compound 38, 1-(4-fluorophenyl)-3-{4-[4-morpholin-4-yl-7-(2,2,2-trifluoroethyl)-7H-pyrrolo[2,3-d]pyrimidin-2-yl]phenyl}urea], for which the IC50 came to 3.45 nM on mTOR Kinase (FLAG-TOR), 82 nM on PI3Kα and 1530 nM on PI3Kγ.
For `CCOC(=O)Nc1nc2cc(-c3nc(N4CCOCC4)c4ccn(CC(F)(F)F)c4n3)ccc2[nH]1` [Compound 49, ethyl {5-[4-morpholin-4-yl-7-(2,2,2-trifluoroethyl)-7H-pyrrolo[2,3-d]pyrimidin-2-yl]-1H-benzimidazol-2-yl}carbamate] the same measures were 1450 nM, 1840 nM and 210 nM.
For `CN(C)CCNC(=O)c1ccc(NC(=O)Nc2ccc(-c3nc(N4CCOCC4)c4ccn(CC(F)(F)F)c4n3)cc2)cc1` [Compound 52, N-[2-(dimethylamino)ethyl]-4-[({4-[4-morpholin-4-yl-7-(2,2,2-trifluoroethyl)-7H-pyrrolo[2,3-d]pyrimidin-2-yl]phenyl}carbamoyl)amino]benzamide] the same measures were 0.3 nM, 1.1 nM and 24 nM.
For `CN(C)CCn1ccc2c(N3CCOCC3)nc(-c3ccc(NC(=O)NCCc4c[nH]c5ccccc45)cc3)nc21` [Compound 18, 1-(4-{7-[2-(dimethylamino)ethyl]-4-morpholin-4-yl-7H-pyrrolo[2,3-d]pyrimidin-2-yl}phenyl)-3-[2-(1H-indol-3-yl)ethyl]urea] the same measures were 102 nM, 1400 nM and 2180 nM.
For `CN1CCN(c2ccc(NC(=O)Nc3ccc(-c4nc(N5CCOCC5)c5ccn(CC(F)(F)F)c5n4)cc3)cc2)CC1` [Compound 39, 1-[4-(4-methylpiperazin-1-yl)phenyl]-3-{4-[4-morpholin-4-yl-7-(2,2,2-trifluoroethyl)-7H-pyrrolo[2,3-d]pyrimidin-2-yl]phenyl}urea], the half-inhibitory concentration (IC50) on mTOR Kinase (FLAG-TOR) is 1.95 nM; at PI3Kα, 17 nM; at PI3Kγ, 41 nM.
For `CN(C)CCCNC(=O)Nc1ccc(-c2nc(N3CCOCC3)c3ccn(CCN(C)C)c3n2)cc1` [Compound 15, 1-(4-{7-[2-(dimethylamino)ethyl]-4-morpholin-4-yl-7H-pyrrolo[2,3-d]pyrimidin-2-yl}phenyl)-3-[3-(dimethylamino)propyl]urea] the same measures were 3400 nM, 162 nM and 4360 nM.
Taken in the same sequence, the figures for `COC(=O)c1ccc(NC(=O)Nc2ccc(-c3nc(N4CCOCC4)c4ccn(C(C)C)c4n3)cc2)cc1` [Compound 89, methyl 4-({[4-(7-isopropyl-4-morpholin-4-yl-7H-pyrrolo[2,3-d]pyrimidin-2-yl)phenyl]carbamoyl}amino)benzoate] were 4.8 nM, 116 nM and 511 nM.
Taken in the same sequence, the figures for `O=C(Nc1nc2cc(-c3nc(N4CCOCC4)c4ccn(CC(F)(F)F)c4n3)ccc2[nH]1)c1ccncc1` [Compound 47, N-{5-[4-morpholin-4-yl-7-(2,2,2-trifluoroethyl)-7H-pyrrolo[2,3-d]pyrimidin-2-yl]-1H-benzimidazol-2-yl}isonicotinamide] were 300 nM, 1080 nM and 5230 nM.
Turning to `O=C(Nc1ccc(C(=O)NCCN2CCCCC2)cc1)Nc1ccc(-c2nc(N3CCOCC3)c3ccn(CC(F)(F)F)c3n2)cc1` [Compound 56, 4-[({4-[4-morpholin-4-yl-7-(2,2,2-trifluoroethyl)-7H-pyrrolo[2,3-d]pyrimidin-2-yl]phenyl}carbamoyl)amino]-N-(2-piperidin-1-ylethyl)benzamide], the IC50 on mTOR Kinase (FLAG-TOR) came out at 0.53 nM; on PI3Kα, 2.6 nM; at PI3Kγ, 40 nM.
Taken in the same sequence, the figures for `CC(C)n1ccc2c(N3CCOCC3)nc(-c3ccc(NC(=O)Nc4ccc(C(=O)N5CCC(N(C)C)CC5)cc4)cc3)nc21` [Compound 84, 1-(4-{[4-(dimethylamino)piperidin-1-yl]carbonyl}phenyl)-3-[4-(7-isopropyl-4-morpholin-4-yl-7H-pyrrolo[2,3-d]pyrimidin-2-yl)phenyl]urea] were 0.8 nM, 4 nM and 38 nM.
Take `CCn1ccc2c(N3CCOCC3)nc(-c3ccc(NC(=O)Nc4ccc(C(=O)N(C)CCN(C)C)cc4)cc3)nc21` [Compound 61, N-[2-(dimethylamino)ethyl]-4-({[4-(7-ethyl-4-morpholin-4-yl-7H-pyrrolo[2,3-d]pyrimidin-2-yl)phenyl]carbamoyl}amino)-N-methylbenzamide]: the IC50 on mTOR Kinase (FLAG-TOR) is 0.43 nM; on PI3Kα, less than 1.9 nM; on PI3Kγ, 20 nM.
